{"source": "patent US20190008828A1", "about": "“METHODS FOR INHIBITING HUMAN IMMUNODEFICIENCY VIRUS (HIV) RELEASE FROM INFECTED CELLS” (priority 2015, published 2019)", "molecules": {"B1": {"name": "soluble human L-selectin (sCD62L) (receptor, UniProt P14151 39-332, looked up)", "chain": "WTYHYSEKPMNWQRARRFCRDNYTDLVAIQNKAEIEYLEKTLPFSRSYYWIGIRKIGGIWTWVGTNKSLTEEAENWGDGEPNNKKNKEDCVEIYIKRNKDAGKWNDDACHKLKAALCYTASCQPWSCSGHGECVEIINNYTCNCDVGYYGPQCQFVIQCEPLEAPELGTMDCTHPLGNFSFSSQCAFSCSEGTNLTGIEETTCGPFGNWSSPEPTCQVIQCEPLSAPDLGIMNCSHPLASFSFTSACTFICSEGTELIGKKKTICESSGIWSNPSPICQKLDKSFSMIKEGDYN", "notes": "also called soluble CD62L; recombinant CD62L"}}, "key": {"[1]": {"biological_target": "T1, CD62L-Fc binding to immobilized gp120 (Homo sapiens, UniProt P14151)", "T1 construct": "Soluble gp120 and CD62L ELISA; Fc (IgG); purchased R&D Systems, Inc", "T1 sequence (P14151 39-332 limits assumed)": "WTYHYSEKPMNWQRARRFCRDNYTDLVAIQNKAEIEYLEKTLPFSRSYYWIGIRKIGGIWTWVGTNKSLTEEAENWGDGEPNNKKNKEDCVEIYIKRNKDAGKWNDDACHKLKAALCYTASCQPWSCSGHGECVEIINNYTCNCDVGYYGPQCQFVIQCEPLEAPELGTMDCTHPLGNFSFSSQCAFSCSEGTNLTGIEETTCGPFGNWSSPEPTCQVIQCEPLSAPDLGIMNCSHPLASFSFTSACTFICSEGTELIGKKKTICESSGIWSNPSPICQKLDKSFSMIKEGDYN", "test": "Soluble gp120 and CD62L ELISA in presence of inhibitors", "settings": "10 mM EDTA or 10 mg/ml carbohydrates", "description": "Fifty ng of gp120 proteins were immobilized in individual wells of a 96-well plate for 1 hour at room temperature in coating buffer (10 mM Tris [pH7.5] and 2 mM CaCl2), blocked for 1 hour using blocking buffer (10 mM Tris [pH7.5], 0.1% Tween20), and washed three times with the same buffer. […] The plate was washed five times and readout was colorimetric using a TMB substrate and analyzed on a SPECTRAMAX™ Plus 384 spectrophotometer (Molecular Devices)."}, "HIV-1BaL [2]": {"system": "HIV-1BaL", "test": "HIV-1BaL infection of activated CD8-depleted PBMCs", "format": "cell-based", "settings": "for reduction of HIV-1BaL infection of CD4+ T cells: 5 μM"}, "[3]": {"biological_target": "T2, soluble human L-selectin (sCD62L) (Homo sapiens, UniProt P14151)", "test": "SPR (Biacore 3000), gp120 injected over immobilized CD62L"}, "HIV-1 viral release": {"system": "HIV-1 viral release", "test": "HIV-1 release assay, CD4+ T cells of HIV-1-infected individuals", "format": "cell-based", "description": "PBMCs were obtained by leukapheresis and ficoll-hypaque centrifugation. CD4+ T cells were isolated using a cell separation system (StemCell Technologies). Cells were cultured with medium alone or with plate-bound anti-CD3 and soluble anti-CD28 antibody in the absence (DMSO) or presence of BB-94 in duplicate for 48 hours. The copy number of virion-associated HIV RNA in the above cell culture supernatants was determined using the […]-1 Test, Version 2.0 (Roche Diagnostics). The limit of detection for this system is 20 copies/ml."}, "HIV-1BaL [4]": {"system": "HIV-1BaL", "test": "Cell-cell transfer TZM-BL assay", "settings": "TZM-BL co-incubated with HIV-1BaL-infected activated CD8-depleted PBMCs", "procedure": "For the cell-cell transfer assay, TZM-BL and TZM-62L cells were seeded in a 96-well, flat-bottom plate at 3,000 cells/well three days before the assay. Three days post infection with HIV-1BaL, activated CD8-depleted PBMCs with and without the presence of BB-94 were added to the wells at the concentration of 80×10^3, 40×10^3, 20×10^3, 10×10^3, and 5×10^3 cells/well with the volume of each well equalized using the CD8− PBMC media. Additional BB-94 was added to both the cells infected in the presence of BB-94 and a sample of cells that only received BB-94 treatment for the cell-cell transfer assay. All conditions were prepared in triplicate. The cell mixtures were incubated at 37° C. for three days, followed by lysis and measurement of the subsequent luciferase expression as per the manufacturer's instructions."}, "CD62L shedding": {"system": "CD62L shedding", "test": "CD62L shedding on activated CD8-depleted PBMCs", "format": "cell-based, human", "settings": "100 μM concentration; supernatant CD62L by ELISA"}, "[5]": {"biological_target": "B1", "test": "SPR (Biacore 3000), CD62L ligand against CD62L"}, "[6]": {"biological_target": "T3, gp120 of strain PBJ (SIV) (SIV, UniProt P19503 23-535)", "T3 sequence": "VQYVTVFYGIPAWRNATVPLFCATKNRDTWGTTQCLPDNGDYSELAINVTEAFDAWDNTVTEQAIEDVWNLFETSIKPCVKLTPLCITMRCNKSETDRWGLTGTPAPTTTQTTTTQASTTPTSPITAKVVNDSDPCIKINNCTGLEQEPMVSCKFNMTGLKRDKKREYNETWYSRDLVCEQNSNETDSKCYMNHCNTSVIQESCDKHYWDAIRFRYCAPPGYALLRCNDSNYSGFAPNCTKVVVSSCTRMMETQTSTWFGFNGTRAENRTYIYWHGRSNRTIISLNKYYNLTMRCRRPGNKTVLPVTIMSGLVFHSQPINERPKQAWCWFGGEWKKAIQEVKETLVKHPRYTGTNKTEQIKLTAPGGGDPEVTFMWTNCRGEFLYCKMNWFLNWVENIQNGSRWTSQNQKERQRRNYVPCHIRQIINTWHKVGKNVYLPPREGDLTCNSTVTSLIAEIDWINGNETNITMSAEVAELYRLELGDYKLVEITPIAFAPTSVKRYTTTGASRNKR", "test": "SPR (Biacore 3000), gp120 injected over immobilized CD62L"}, "[7]": {"biological_target": "T2, soluble human L-selectin (sCD62L)", "format": "binding", "settings": "recombinant gp120 injected over immobilized CD62L, SPR; read-out: KD (nM), Solution KD for CD62L"}}, "note": "Entries after “also recorded” stand apart in the source; their conditions may differ. Read-outs that look alike come from different tables or passages of the source."}
{"molecule": "CC(=O)N[C@H]1C(O)O[C@H](CO)[C@@H](O)[C@@H]1O", "note": "(stereo partly drawn) [N-acetylglucosamine, N-acetyl-D-glucosamine]", "values": [{"measurement": "gp120-CD62L binding in the presence of inhibitor", "setting": "[1]", "value": "not"}]}
{"molecule": "sialyllactose", "values": [{"measurement": "gp120-CD62L binding in the presence of inhibitor", "setting": "[1]", "value": "inhibited"}]}
{"molecule": "O=C(O)CN(CCN(CC(=O)O)CC(=O)O)CC(=O)O", "note": "[EDTA]", "values": [{"measurement": "HIV-1BaL infection, intracellular viral capsid p24", "setting": "HIV-1BaL [2]; 5 mM EDTA", "value": "significantly reduced"}]}
{"molecule": "gp120 of strain 11530 (Clade A) (ligand)", "values": [{"measurement": "Kd", "setting": "[3]", "value": 35, "unit": "nM"}]}
{"molecule": "gp120 of strain RV254 (Clade E) (ligand)", "values": [{"measurement": "Kd", "setting": "[3]", "value": 15, "unit": "nM"}]}
{"molecule": "recombinant gp120 from strain 20SF of Clade C (ligand)", "values": [{"measurement": "Kd", "setting": "[3]", "value": 53, "unit": "nM"}]}
{"molecule": "CNC(=O)[C@H](Cc1ccccc1)NC(=O)[C@H](CC(C)C)[C@H](CSc1cccs1)C(=O)NO", "note": "[BB-94, Batimastat]", "values": [{"measurement": "reduction of HIV-1BaL infection of CD4+ T cells", "setting": "HIV-1BaL [2]; day 6, intracellular p24", "value": 60, "unit": "%"}, {"measurement": "reduction of HIV-1BaL infection of CD4+ T cells", "setting": "HIV-1BaL [2]; day 11, intracellular p24", "value": 80, "unit": "%"}, {"measurement": "inhibition of HIV-1 viral release among infected individuals", "setting": "HIV-1 viral release; paired DMSO and BB-94 treatment, viremic and aviremic individuals", "value": "30%-90%"}, {"measurement": "reduction in the viral infection of TZM-BL cells compared to the control", "setting": "HIV-1BaL [4]", "value": 80, "unit": "%"}]}
{"molecule": "sialyl-Lewis X", "values": [{"measurement": "gp120-CD62L binding in the presence of inhibitor", "setting": "[1]", "value": "competed with gp120 for receptor binding"}, {"measurement": "gp120-CD62L binding in the presence of inhibitor", "setting": "[1]; listed as Sialyl-Lewis", "value": "inhibited gp120 binding"}]}
{"molecule": "O=P(O)(O)C(Cl)(Cl)P(=O)(O)O", "note": "[DMDP, dichloromethylenediphosphonic acid]", "values": [{"measurement": "HIV-1BaL infection", "setting": "HIV-1BaL [2]; 100 μM concentration, intracellular p24", "value": "showed no effect"}, {"measurement": "CD62L shedding", "setting": "CD62L shedding", "value": "showed no effect"}, {"measurement": "activation-induced viral release, virion-associated HIV-1 RNA in supernatant", "setting": "HIV-1 viral release; anti-CD3 stimulated CD4+ T cells from viremic and aviremic individuals, 48 hours", "value": "neither DMSO nor DMDP affected the viral release"}]}
{"molecule": "OC[C@H]1O[C@@H](O[C@H]2[C@H](O)[C@@H](O)C(O)O[C@@H]2CO)[C@H](O)[C@@H](O)[C@H]1O", "note": "(some centres unmarked) [lactose]", "values": [{"measurement": "gp120-CD62L binding in the presence of inhibitor", "setting": "[1]", "value": "not"}]}
{"molecule": "fucoidan", "values": [{"measurement": "gp120-CD62L binding in the presence of inhibitor", "setting": "[1]", "value": "inhibited gp120 binding; also recorded: competed with gp120 for receptor binding"}]}
{"molecule": "Heparin", "values": [{"measurement": "gp120-CD62L binding in the presence of inhibitor", "setting": "[1]", "value": "competed with gp120 for receptor binding"}, {"measurement": "gp120-CD62L binding in the presence of inhibitor", "setting": "[1]; listed as heparin", "value": "inhibited gp120 binding"}]}
{"molecule": "soluble mucin (PSM-II) (ligand)", "values": [{"measurement": "Kd", "setting": "[5]", "value": 3800, "unit": "nM"}]}
{"molecule": "gp120 of strain CAP 88 (Clade C) (ligand)", "values": [{"measurement": "Kd", "setting": "[3]", "value": 71, "unit": "nM"}]}
{"molecule": "gp120 of strain Z185 (Clade C) (ligand)", "values": [{"measurement": "Kd", "setting": "[3]", "value": 58, "unit": "nM"}]}
{"molecule": "gp120 of strain R66M (Clade A/C) (ligand)", "values": [{"measurement": "Kd", "setting": "[3]", "value": 18, "unit": "nM"}]}
{"molecule": "B1", "values": [{"measurement": "Kd", "setting": "[6]", "value": 19, "unit": "nM"}]}
{"molecule": "recombinant PSGL-1 (ligand, UniProt Q14242 42-295, looked up, also called P-selectin glycoprotein ligand-1) QATEYEYLDYDFLPETEPPEMLRNSTDTTPLTGPGTPESTTVEPAARRSTGLDAGGAVTELTTELANMGNLSTDSAAMEIQTTQPAATEAQTTQPVPTEAQTTPLAATEAQTTRLTATEAQTTPLAATEAQTTPPAATEAQTTQPTGLEAQTTAPAAMEAQTTAPAAMEAQTTPPAAMEAQTTQTTAMEAQTTAPEATEAQTTQPTATEAQTTPLAAMEALSTEPSATEALSMEPTTKRGLFIPFSVSSVTHKG", "values": [{"measurement": "Kd", "setting": "[5]", "value": 50000, "unit": "nM"}]}
{"molecule": "PBJ: recombinant gp120, strain PBJ, SIV (protein) VQYVTVFYGIPAWRNATVPLFCATKNRDTWGTTQCLPDNGDYSELAINVTEAFDAWDNTVTEQAIEDVWNLFETSIKPCVKLTPLCITMRCNKSETDRWGLTGTPAPTTTQTTTTQASTTPTSPITAKVVNDSDPCIKINNCTGLEQEPMVSCKFNMTGLKRDKKREYNETWYSRDLVCEQNSNETDSKCYMNHCNTSVIQESCDKHYWDAIRFRYCAPPGYALLRCNDSNYSGFAPNCTKVVVSSCTRMMETQTSTWFGFNGTRAENRTYIYWHGRSNRTIISLNKYYNLTMRCRRPGNKTVLPVTIMSGLVFHSQPINERPKQAWCWFGGEWKKAIQEVKETLVKHPRYTGTNKTEQIKLTAPGGGDPEVTFMWTNCRGEFLYCKMNWFLNWVENIQNGSRWTSQNQKERQRRNYVPCHIRQIINTWHKVGKNVYLPPREGDLTCNSTVTSLIAEIDWINGNETNITMSAEVAELYRLELGDYKLVEITPIAFAPTSVKRYTTTGASRNKR", "values": [{"measurement": "Kd", "setting": "[7]", "value": "19 ± 2", "unit": "nM"}]}
